Results: article PMC6105673 (Nature Communications, 2018)
*: point of attachment. Biotin = O=C1N[C@H]2[C@H](CS[C@H]2CCCCC(=O)*)N1

Experiments:
HIS6-PHD2 (181–426) [1] = test: In vitro hydroxylation assay (HIS6-PHD2 treatment, then IVTT pVHL pull-down); assay type: biochemical; details: unmodified biotinylated peptides, 15 μg/mL HIS6-PHD2 (181–426), 1 h room temperature, then IVTT HA-VHL30 under stringent buffer
Description: Considering that prolyl hydroxylation is indispensable for HIF-2α binding to pVHL, we next examined the notion that the A530V mutation negatively influences hydroxylation of HIF-2α via PHD2, which would attenuate HIF-2α A530V binding affinity for pVHL. We conducted an in vitro hydroxylation assay utilizing unmodified peptides (amino acids 523–542) incubated with purified HIS6-PHD2 (catalytic core, amino acids 181–426).
Fig. 5 A subset of class 1 mutations specifically disrupts PHD2-mediated hydroxylation. a, b Biotinylated HIF-2α peptides (residues 523–542) were immobilized on streptavidin- agarose beads and incubated with HIS6-PHD2 for 1 h at room temperature prior to incubation with in vitro transcribed and translated (IVTT) pVHL. Streptavidin beads were pulled down (PD) and levels of HA-tagged pVHL were visualized via immmunoblotting (IB). c HEK293a cells were co-transfected with FLAG-VHL and HA-HIF-2α constructs. FLAG was immunoprecipitated (IP) and levels of HA-tagged HIF-2α were visualized via immunoblotting (IB). * denotes uncharacterized band
The in vitro pVHL-HIF-2α hydroxylation assay was performed according to a previously published protocol. 5 μg of biotinylated HIF-2α peptide was immobilized on streptavidin-agarose beads. Subsequently, peptides were incubated with 15 μg/mL HIS6-PHD2 (181–426) in 500 μL of 40 mM HEPES pH 7.4, 80 mM KCl, 5 mM a-ketoglutarate, 2 mM ascorbic acid, 100 μM FeCl2 tetrahydrate solution at room temperature for 1 h. FeCl2 was stored under anoxic conditions to prevent oxidation. Following hydroxylation, beads were washed 5x with EBC buffer and peptides were incubated with IVTT HA-VHL30 under the stringent buffer conditions described above.

HIS6-PHD2 (181–426) [2] = test: Steady-state pull-down of purified HIS6-PHD2 with biotinylated HIF-2α peptides; assay type: binding; details: peptides (523–542), purified HIS6-PHD2 (181–426), with 1 mM MnCl2 and 1 mM NOG, 2 h at 4 °C
Source text: To first test this hypothesis, we performed steady-state pull-down experiments with HIF-2α peptides (523–542) and purified HIS6-PHD2 (181–426). To stabilize the interaction between enzyme and substrate, it was necessary to include MnCl2 and N-oxalylglycine (NOG) in the binding buffer. Mn^2+ and NOG substitute for Fe^2+ and αKG, respectively, which stabilizes the HIF-2α-PHD2 interaction while preventing enzymatic turnover. A similar strategy was employed during co-crystallization of HIF-1α peptide with PHD2[43]. We observed that […] tested HIF-2α mutations result in decreased affinity for PHD2 (Supplementary Figure 6a). […] Next, we co-transfected HEK293a cells with 3xFLAG-HIF-2α ODD and HA-PHD2 constructs. […] The increased binding of the M535I mutant to PHD2 was not observed in this experiment. One important caveat is that the HIF-2α ODD constructs contain both the P405 and P531 sites. Thus, the residual PHD2 binding observed among HIF-2α mutants may partially be driven by the P405 site, which may mask differential PHD2 binding among the HIF-2α mutant ODD constructs.
5 μg of biotinylated HIF-2α peptide (WT or mutant) was immobilized on streptavidin agarose beads and incubated with a […] solution of purified HIS6-PHD2 (181–426) in 50 mM Tris-HCl pH 7.5, 0.005% (v/v) Tween-20 buffer supplemented with or without 1 mM MnCl2 and 1 mM NOG, for 2 h at 4 °C. Beads were washed 2x with the same buffer. Biotinylated peptide was pulled down via streptavidin agarose beads and protein was eluted by boiling beads in sample buffer. Protein levels of HIS6-PHD2 were determined by western blotting. Uncropped western blots are provided in Supplementary Figure 8.
Supplementary Figure 6. HIF-2α mutations disrupt PHD2 binding. (A) Biotinylated HIF-2α peptides (523-542, except where noted) were immobilized on streptavidin- agarose beads and incubated with purified HIS6-PHD2 (181-426) in the presence or absence of 1 mM MnCl2 and 1 mM N-oxalylglycine (NOG).
Streptavidin beads were pulled down (PD) and levels of HIS6-tagged PHD2 were visualized via immmunoblotting (IB). […]

[3] = target: T1, HIS6-PHD2 (catalytic core, amino acids 181–426) (UniProt Q9GZT9 181-426); test: pull-down; biotinylated unmodified peptide on streptavidin agarose, purified HIS6-PHD2 (181–426), 50 mM Tris-HCl pH 7.5, 0.005% Tween-20 with 1 mM MnCl2 and 1 mM NOG, 2 h at 4 °C; anti-HIS blot; details: both partners purified
T1 construct: prolyl hydroxylase domain containing enzyme 2 (PHD2, encoded by EGLN1), catalytic core, residues 181-426; plasmid pET-46 HIS6-PHD2; also called purified HIS6-PHD2 (181–426); source: E. coli BL21(DE3), purified (nickel sepharose, SEC)
T1 sequence (Q9GZT9 181-426): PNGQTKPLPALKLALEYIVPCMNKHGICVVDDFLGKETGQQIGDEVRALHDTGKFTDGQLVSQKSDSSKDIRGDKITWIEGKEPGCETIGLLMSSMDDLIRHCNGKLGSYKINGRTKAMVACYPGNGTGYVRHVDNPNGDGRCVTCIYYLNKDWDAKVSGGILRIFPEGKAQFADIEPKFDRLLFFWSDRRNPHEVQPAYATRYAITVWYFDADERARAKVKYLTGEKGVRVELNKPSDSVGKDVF

| Molecule | binding to pVHL following HIS6-PHD2 treatment (immunoblot, in words) (HIS6-PHD2 (181–426) [1]) | affinity for PHD2 in steady-state pull-down (immunoblot, in words) (HIS6-PHD2 (181–426) [2]) | binding result [3] |
| --- | --- | --- | --- |
| Bio-HIF-2α(M535I): unmodified HIF-2α peptide (523–542) with M535I mutation (Biotin-ELDLETLAPYIPIDGEDFQL-NH2; SMILES CC[C@H](C)[C@H](NC(=O)[C@@H]1CCCN1C(=O)[C@@H](NC(=O)[C@H](Cc1ccc(O)cc1)NC(=O)[C@@H]1CCCN1C(=O)[C@H](C)NC(=O)[C@H](CC(C)C)NC(=O)[C@@H](NC(=O)[C@H](CCC(=O)O)NC(=O)[C@H](CC(C)C)NC(=O)[C@H](CC(=O)O)NC(=O)[C@H](CC(C)C)NC(=O)[C@H](CCC(=O)O)NC(=O)CCCC[C@@H]1SC[C@@H]2NC(=O)N[C@@H]21)[C@@H](C)O)[C@@H](C)CC)C(=O)N[C@@H](CC(=O)O)C(=O)NCC(=O)N[C@@H](CCC(=O)O)C(=O)N[C@@H](CC(=O)O)C(=O)N[C@@H](Cc1ccccc1)C(=O)N[C@@H](CCC(N)=O)C(=O)N[C@@H](CC(C)C)C(N)=O) | still retained affinity for pVHL | not as deleterious | – |
| HIF-2α L542P peptide: unmodified HIF-2α peptide (523–542) with class 1 mutation L542P (Biotin-ELDLETLAPYIPMDGEDFQP-NH2; SMILES CC[C@H](C)[C@H](NC(=O)[C@H](Cc1ccc(O)cc1)NC(=O)[C@@H]1CCCN1C(=O)[C@H](C)NC(=O)[C@H](CC(C)C)NC(=O)[C@@H](NC(=O)[C@H](CCC(=O)O)NC(=O)[C@H](CC(C)C)NC(=O)[C@H](CC(=O)O)NC(=O)[C@H](CC(C)C)NC(=O)[C@H](CCC(=O)O)NC(=O)CCCC[C@@H]1SC[C@@H]2NC(=O)N[C@@H]21)[C@@H](C)O)C(=O)N1CCC[C@H]1C(=O)N[C@@H](CCSC)C(=O)N[C@@H](CC(=O)O)C(=O)NCC(=O)N[C@@H](CCC(=O)O)C(=O)N[C@@H](CC(=O)O)C(=O)N[C@@H](Cc1ccccc1)C(=O)N[C@@H](CCC(N)=O)C(=O)N1CCC[C@H]1C(N)=O) | failed to bind pVHL | – | – |
| Biotin-ELDLETLAPYIPMDGEDFQL-NH2 (SMILES CC[C@H](C)[C@H](NC(=O)[C@H](Cc1ccc(O)cc1)NC(=O)[C@@H]1CCCN1C(=O)[C@H](C)NC(=O)[C@H](CC(C)C)NC(=O)[C@@H](NC(=O)[C@H](CCC(=O)O)NC(=O)[C@H](CC(C)C)NC(=O)[C@H](CC(=O)O)NC(=O)[C@H](CC(C)C)NC(=O)[C@H](CCC(=O)O)NC(=O)CCCC[C@@H]1SC[C@@H]2NC(=O)N[C@@H]21)[C@@H](C)O)C(=O)N1CCC[C@H]1C(=O)N[C@@H](CCSC)C(=O)N[C@@H](CC(=O)O)C(=O)NCC(=O)N[C@@H](CCC(=O)O)C(=O)N[C@@H](CC(=O)O)C(=O)N[C@@H](Cc1ccccc1)C(=O)N[C@@H](CCC(N)=O)C(=O)N[C@@H](CC(C)C)C(N)=O, Used for the pull-down of HIS6-PHD2; source: synthetic peptide (Genscript)) [HIF-2α WT peptide (523-542), unmodified] | – | – | binds |
| Biotin-ELDLETLAPYIPIDGEDFQL-NH2 (peptide, UniProt Q99814 523-542, looked up, SMILES CC[C@H](C)[C@H](NC(=O)[C@@H]1CCCN1C(=O)[C@@H](NC(=O)[C@H](Cc1ccc(O)cc1)NC(=O)[C@@H]1CCCN1C(=O)[C@H](C)NC(=O)[C@H](CC(C)C)NC(=O)[C@@H](NC(=O)[C@H](CCC(=O)O)NC(=O)[C@H](CC(C)C)NC(=O)[C@H](CC(=O)O)NC(=O)[C@H](CC(C)C)NC(=O)[C@H](CCC(=O)O)NC(=O)CCCC[C@@H]1SC[C@@H]2NC(=O)N[C@@H]21)[C@@H](C)O)[C@@H](C)CC)C(=O)N[C@@H](CC(=O)O)C(=O)NCC(=O)N[C@@H](CCC(=O)O)C(=O)N[C@@H](CC(=O)O)C(=O)N[C@@H](Cc1ccccc1)C(=O)N[C@@H](CCC(N)=O)C(=O)N[C@@H](CC(C)C)C(N)=O, Used for the pull-down of HIS6-PHD2; also called M535I class 2 mutant; source: synthetic peptide (Genscript)) [HIF-2α M535I peptide (523-542), unmodified] | – | – | binds |
